# Results reported in patent US20190337924A1, “SUBSTITUTED HYDANTOIN AND THIOHYDANTOIN DERIVATIVES AS ANDROGEN RECEPTOR ANTAGONISTS” (Janssen Pharmaceutica NV, priority 2016, published 2019).
# Counter-ions that a name gives are not always drawn. Like-named read-outs stand apart in the source and are kept apart here.
# Biological target: T1, F876L mutant Androgen Receptor (AR-F876L) (Homo sapiens, UniProt P10275, F877L)
# T1 construct: expressed in transfected cells; host or cells: LNCaP
# T1 sequence (P10275 1-920 F877L): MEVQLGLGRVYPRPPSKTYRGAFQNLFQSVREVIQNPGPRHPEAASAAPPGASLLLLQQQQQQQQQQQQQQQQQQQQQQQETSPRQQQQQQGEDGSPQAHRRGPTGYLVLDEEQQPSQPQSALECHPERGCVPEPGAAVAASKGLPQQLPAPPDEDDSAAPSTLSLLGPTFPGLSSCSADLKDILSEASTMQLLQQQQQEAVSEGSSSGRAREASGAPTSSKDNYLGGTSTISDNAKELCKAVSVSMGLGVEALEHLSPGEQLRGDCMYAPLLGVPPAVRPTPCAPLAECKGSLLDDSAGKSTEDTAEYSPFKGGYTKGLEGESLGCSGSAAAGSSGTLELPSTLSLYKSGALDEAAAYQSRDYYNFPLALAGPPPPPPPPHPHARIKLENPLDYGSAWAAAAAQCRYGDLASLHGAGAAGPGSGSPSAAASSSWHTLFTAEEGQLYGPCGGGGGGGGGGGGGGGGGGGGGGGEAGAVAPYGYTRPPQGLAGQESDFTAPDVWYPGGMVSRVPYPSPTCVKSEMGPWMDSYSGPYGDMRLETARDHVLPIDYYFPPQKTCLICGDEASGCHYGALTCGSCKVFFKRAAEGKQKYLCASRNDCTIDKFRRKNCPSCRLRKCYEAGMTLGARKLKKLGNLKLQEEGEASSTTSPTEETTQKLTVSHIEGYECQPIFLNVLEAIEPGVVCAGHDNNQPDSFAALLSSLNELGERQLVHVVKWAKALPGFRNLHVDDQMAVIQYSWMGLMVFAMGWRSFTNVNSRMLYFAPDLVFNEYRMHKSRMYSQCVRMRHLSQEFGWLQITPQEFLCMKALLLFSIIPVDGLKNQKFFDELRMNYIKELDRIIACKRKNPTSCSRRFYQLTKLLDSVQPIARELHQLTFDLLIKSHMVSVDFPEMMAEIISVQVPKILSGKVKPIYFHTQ
# Experiment: AR reporter assay, LNCaP-AR-F876L AG (agonist mode)
# Format: cell-based
# Conditions: for Emax: read-out: LNCaP-AR-F876L AG MAX % Stim
# Text: LNCaP AR (cs) and LNCaP F876L luciferase cell lines were generated by transduction of each cell line (description of cell line generation Joseph J D, Lu N, Qian J, Sensintaffar J, Shao G, Brigham D, Moon M, Maneval E C, Chen I, Darimont B, Hager J H. A clinically relevant androgen receptor mutation confers resistance to second-generation antiandrogens enzalutamide and ARN-509. Cancer Discov 2013; 3:1020-1029) with an Androgen Response Element Firefly Luciferase lentiviral construct at an MOI (multiplicity of infection) of 50 following the manufacturer's instructions (Qiagen). A stable pooled-population cell line was generated using puromycin (Life Technologies) selection at 1:10,000 v/v. The protocol below was used for both cell lines and for testing of the compounds of Formula (I) of the present invention.
# LNCaP cells were grown to about 80% confluence, media removed and cells rinsed in Hank's balanced salt solution prior to separation from the plate with 0.05% Trypsin EDTA. Cells were lifted and trypsin negated in complete CSS (charcoal stripped serum) culture media. CSS was maintained on cells for 24 h prior to assay, at which time 5,000 cells/[…] were seeded in Greiner 384 well White/White Tissue Culture Treated Plates and incubated for a further 1-2 hours at 37° C., 5% CO2, prior to addition of 10 μL of 4× Test Compounds (compounds described herein) or Assay Controls (all diluted in complete media containing 10% css). A further 10 μL of 4× R-1881 Agonist Challenge (antagonist assay) or Buffer (agonist assay) was then added (all diluted in complete media containing 10% css). Agonist challenge was at 400 pM for WT assay and 600 pM for F876L assay. Plates containing cells and compounds herein were incubated for a further 20-24 hours at 37° C., 5% CO2 before addition of 40 μL/well of Steady-Glo Luciferase Assay System Reagent (Promega#E2520). After 1 h, plates were read for luminescence on a BMG Pherastar.
# ((Sample RLU−Ave Low Control RLU[DMSO/Buffer])/(Ave High Control RLU [1 μM R-1881]—Ave Low Control RLU[DMSO/Buffer]))*100.
# EC/IC50 calculations were achieved utilizing calculated RLU data and data fitting macros. Data were fit using least-squares methods to the following formula: […]
# As used herein: • pIC50 is defined as −Log10(IC50 expressed in [Molar]). • pEC50 is defined as −Log10(EC50 expressed in [Molar]). • MAX % Inh is defined as the maximum % inhibition of R1881 control response observed for a compound over the tested concentration range. • MAX % Stim is defined as the maximum % stimulation (agonist response) observed for a compound over the tested concentration range. • LNCaP-AR-wt ANT refers to the reporter assay using LNCaP cells stably transfected with the Androgen Response Element Firefly Luciferase lentiviral construct and wild-type Androgen Receptor (AR-wt) in Antagonist mode. • LNCaP-AR-wt AG refers to the reporter assay using LNCaP cells stably transfected with the Androgen Response Element Firefly Luciferase lentiviral construct and wild-type Androgen Receptor (AR-wt) in Agonist mode. • LNCaP-AR-F876L ANT refers to the reporter assay using LNCaP cells stably transfected with the Androgen Response Element Firefly Luciferase lentiviral construct and F876L mutant Androgen Receptor (AR-F876L) in Antagonist mode. • LNCaP-AR-F876L AG refers to the reporter assay using LNCaP cells stably transfected with the Androgen Response Element Firefly Luciferase lentiviral construct and F876L mutant Androgen Receptor (AR-F876L) in Agonist mode.
SMILES,"EC50 (agonist mode (buffer, no R-1881), -Log10(EC50 in Molar), read-out: LNCaP-AR-F876L AG pEC50 (converted))",Emax,EC50
"Cc1cc(N2C(=O)C3(CCC3)N(c3ccc(OC4CCN(C)CC4)nc3)C2=S)ccc1C#N [Compound 18, 2-Methyl-4-(5-(6-((1-methylpiperidin-4-yl)oxy)pyridin-3-yl)-8-oxo-6-thioxo-5,7-diazaspiro[3.4]octan-7-yl)benzonitrile]",> 15.1 µM,2.6%,–
"COc1cc(N2C(=O)C3(CCC3)N(c3ccc(OC4CCN(C)CC4)cc3)C2=S)ccc1C#N [Compound 19, 2-Methoxy-4-(5-(4-((1-methylpiperidin-4-yl)oxy)phenyl)-8-oxo-6-thioxo-5,7-diazaspiro[3.4]octan-7-yl)benzonitrile]",–,0.3%,> 15.1 µM
"COc1cc(N2C(=O)C3(CCC3)N(c3ccc(OC4CCN(C)CC4)nc3)C2=S)ccc1C#N [Compound 20, 2-Methoxy-4-(5-(6-((1-methylpiperidin-4-yl)oxy)pyridin-3-yl)-8-oxo-6-thioxo-5,7-diazaspiro[3.4]octan-7-yl)benzonitrile]",–,0.3%,> 15.1 µM
"N#Cc1ccc(N2C(=O)C3(CCC3)N(c3ccc(OC4CCNCC4)cc3)C2=S)cc1Cl [Compound 21, 2-Chloro-4-(8-oxo-5-(4-(piperidin-4-yloxy)phenyl)-6-thioxo-5,7-diazaspiro[3.4]octan-7-yl)benzonitrile]",–,0.2%,> 15.1 µM
"CN1CCC(Oc2ccc(N3C(=S)N(c4ccc(C#N)c(Cl)c4)C(=O)C34CCC4)cc2)CC1 [Compound 22, 2-Chloro-4-(5-(4-((1-methylpiperidin-4-yl)oxy)phenyl)-8-oxo-6-thioxo-5,7-diazaspiro[3.4]octan-7-yl)benzonitrile]",–,0%,> 15.1 µM
"N#Cc1ccc(N2C(=O)C3(CCC3)N(c3ccc(OC4CCNCC4)nc3)C2=S)cc1Cl [Compound 23, 2-Chloro-4-(8-oxo-5-(6-(piperidin-4-yloxy)pyridin-3-yl)-6-thioxo-5,7-diazaspiro[3.4]octan-7-yl)benzonitrile hydrochloride]",–,0.3%,> 15.1 µM
"CN1CCC(Oc2ccc(N3C(=S)N(c4ccc(C#N)c(Cl)c4)C(=O)C34CCC4)cn2)CC1 [Compound 24, 2-Chloro-4-(5-(6-((1-methylpiperidin-4-yl)oxy)pyridin-3-yl)-8-oxo-6-thioxo-5,7-diazaspiro[3.4]octan-7-yl)benzonitrile hydrochloride]",–,0.1%,> 15.1 µM
